Assay [1] in a line: Inhibition of human lysosomal beta-glucosidase assessed as reduction of p-nitrophenol release using p-nitrophenyl glycoside as substrate by spectrophotometric analysis.
The species named for another assay is Sus scrofa. Description: Inhibition of porcine kidney alpha/alpha-trehalase assessed as reduction of p-nitrophenol release using p-nitrophenyl glycoside as substrate at 1000 uM by spectrophotometric analysis relative to control.
The subject of another assay is Prunus dulcis. Nature of the assay: Inhibition of almond beta-glucosidase assessed as reduction of p-nitrophenol release using p-nitrophenyl glycoside as substrate at 1000 uM by spectrophotometric analysis relative to control.
The next assay has as its system Penicillium decumbens. Nature of the assay: Inhibition of Penicillium decumbens alpha-L-rhamnosidase assessed as reduction of p-nitrophenol release using p-nitrophenyl-glycoside as substrate at 1000 uM by spectrophotometric analysis relative to control.
Assay [2] is filed under the species Bos taurus. Nature of the assay: Inhibition of bovine liver beta-glucuronidase assessed as reduction of p-nitrophenol release using p-nitrophenyl-glycoside as substrate at 1000 uM by spectrophotometric analysis relative to control.
Assay [3] addresses T1, Tissue alpha-L-fucosidase (Bos taurus) (UniProt Q2KIM0).
T1 sequence (whole entry): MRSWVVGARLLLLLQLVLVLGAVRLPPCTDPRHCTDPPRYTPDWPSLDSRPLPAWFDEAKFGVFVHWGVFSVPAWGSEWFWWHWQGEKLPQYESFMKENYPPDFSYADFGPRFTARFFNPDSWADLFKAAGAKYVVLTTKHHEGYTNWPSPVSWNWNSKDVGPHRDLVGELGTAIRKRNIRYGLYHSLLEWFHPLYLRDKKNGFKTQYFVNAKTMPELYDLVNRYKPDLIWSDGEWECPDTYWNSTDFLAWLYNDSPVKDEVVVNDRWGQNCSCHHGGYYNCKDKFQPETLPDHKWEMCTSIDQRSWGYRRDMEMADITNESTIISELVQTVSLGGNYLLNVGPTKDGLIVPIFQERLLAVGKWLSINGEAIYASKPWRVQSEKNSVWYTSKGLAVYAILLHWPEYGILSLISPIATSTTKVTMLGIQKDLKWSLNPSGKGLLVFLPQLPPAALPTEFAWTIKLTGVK
Nature of the assay: Inhibition of bovine kidney alpha-L-fucosidase assessed as reduction of p-nitrophenol release using p-nitrophenyl glycoside as substrate at 1000 uM by spectrophotometric analysis relative to control.

A further assay concerns Helix pomatia. Nature of the assay: Inhibition of snail beta-mannosidase assessed as reduction of p-nitrophenol release using p-nitrophenyl glycoside as substrate at 1000 uM by spectrophotometric analysis relative to control.
Assay [4] in a line: Inhibition of bovine liver beta-galactosidase assessed as reduction of p-nitrophenol release using p-nitrophenyl glycoside as substrate by spectrophotometric analysis. Set-up: species or system Bos taurus.
The target in assay [5] is T2, Alpha-mannosidase (Canavalia ensiformis) (UniProt C0HJB3).
T2 sequence (whole entry): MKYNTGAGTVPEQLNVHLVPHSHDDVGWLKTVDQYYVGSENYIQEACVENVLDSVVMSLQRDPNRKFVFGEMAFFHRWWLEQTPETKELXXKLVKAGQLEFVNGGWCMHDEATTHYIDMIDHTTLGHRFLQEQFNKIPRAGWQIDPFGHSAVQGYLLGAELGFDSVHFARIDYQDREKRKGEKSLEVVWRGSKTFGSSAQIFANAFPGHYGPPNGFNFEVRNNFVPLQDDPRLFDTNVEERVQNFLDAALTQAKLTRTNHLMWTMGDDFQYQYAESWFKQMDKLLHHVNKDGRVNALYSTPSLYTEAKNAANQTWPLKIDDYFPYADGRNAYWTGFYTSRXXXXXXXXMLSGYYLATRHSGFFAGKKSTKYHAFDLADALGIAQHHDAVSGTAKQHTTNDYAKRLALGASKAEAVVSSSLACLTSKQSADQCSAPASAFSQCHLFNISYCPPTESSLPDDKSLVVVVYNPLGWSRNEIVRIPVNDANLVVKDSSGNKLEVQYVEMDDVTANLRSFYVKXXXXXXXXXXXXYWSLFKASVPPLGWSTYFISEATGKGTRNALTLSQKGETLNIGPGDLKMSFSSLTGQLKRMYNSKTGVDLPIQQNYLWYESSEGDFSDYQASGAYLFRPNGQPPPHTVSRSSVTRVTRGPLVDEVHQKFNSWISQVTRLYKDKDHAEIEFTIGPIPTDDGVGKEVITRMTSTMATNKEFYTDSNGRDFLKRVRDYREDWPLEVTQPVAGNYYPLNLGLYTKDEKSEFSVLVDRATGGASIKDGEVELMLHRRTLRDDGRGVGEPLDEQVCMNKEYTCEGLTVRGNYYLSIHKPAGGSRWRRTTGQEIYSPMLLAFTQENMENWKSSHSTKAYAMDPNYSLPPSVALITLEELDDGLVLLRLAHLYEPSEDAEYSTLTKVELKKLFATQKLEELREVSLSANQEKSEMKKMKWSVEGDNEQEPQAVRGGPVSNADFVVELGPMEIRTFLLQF
Nature of the assay: Inhibition of jack bean alpha-mannosidase assessed as reduction of p-nitrophenol release using p-nitrophenyl glycoside as substrate at 1000 uM by spectrophotometric analysis relative to control.

Assay [6] concerns the target Beta-glucuronidase (Escherichia coli (strain K12)) (UniProt P05804). Nature of the assay: Inhibition of Escherichia coli beta-glucuronidase assessed as reduction of p-nitrophenol release using p-nitrophenyl-glycoside as substrate at 1000 uM by spectrophotometric analysis relative to control.
The species named for assay [7] is Bos taurus. Description: Inhibition of bovine liver beta-glucosidase assessed as reduction of p-nitrophenol release using p-nitrophenyl glycoside as substrate at 1000 uM by spectrophotometric analysis relative to control.
The target of assay [8] is Alpha-galactosidase (Coffea arabica) (UniProt Q42656). Nature of the assay: Inhibition of coffee beans alpha-galactosidase assessed as reduction of p-nitrophenol release using p-nitrophenyl glycoside as substrate at 1000 uM by spectrophotometric analysis relative to control.
For a further assay, the system named is Aspergillus niger. Description: Inhibition of Aspergillus niger amyloglucosidase assessed as reduction of p-nitrophenol release using p-nitrophenyl-glycoside as substrate at 1000 uM by spectrophotometric analysis relative to control.
A short description of assay [9]: Inhibition of rat intestinal maltase assessed as D-glucose release using maltose as substrate at pH 6.8 by colorimetric method.
Assay [10] deals with Alpha-glucosidase (Saccharomyces cerevisiae S288c) (UniProt P53341+P38158+P07265). Nature of the assay: Inhibition of yeast alpha-glucosidase assessed as reduction of p-nitrophenol release using p-nitrophenyl glycoside as substrate at 1000 uM by spectrophotometric analysis relative to control. Format: protein assay.
Assay [11] in a line: Inhibition of rice alpha-glucosidase assessed as reduction of p-nitrophenol release using p-nitrophenyl glycoside as substrate by spectrophotometric analysis. Also on record: species or system Oryza sativa.
A further assay deals with Alpha-glucosidase (Saccharomyces cerevisiae S288c, UniProt P53341+P38158+P07265). Description: Inhibition of yeast alpha-glucosidase assessed as reduction of p-nitrophenol release using p-nitrophenyl glycoside as substrate by spectrophotometric analysis. Format: protein assay.
Assay [12] can be described thus: Inhibition of snail beta-mannosidase assessed as reduction of p-nitrophenol release using p-nitrophenyl glycoside as substrate by spectrophotometric analysis. Set-up: species or system Helix pomatia.
A short description of assay [13]: Inhibition of Aspergillus niger amyloglucosidase assessed as reduction of p-nitrophenol release using p-nitrophenyl-glycoside as substrate by spectrophotometric analysis.
A further assay concerns the target Beta-glucuronidase (Escherichia coli (strain K12), UniProt P05804). Nature of the assay: Inhibition of Escherichia coli beta-glucuronidase assessed as reduction of p-nitrophenol release using p-nitrophenyl-glycoside as substrate by spectrophotometric analysis.
Assay [14] can be described thus: Inhibition of bovine liver beta-glucosidase assessed as reduction of p-nitrophenol release using p-nitrophenyl glycoside as substrate by spectrophotometric analysis. Also on record: species or system Bos taurus.
The nature of assay [15]: Inhibition of almond beta-glucosidase assessed as reduction of p-nitrophenol release using p-nitrophenyl glycoside as substrate by spectrophotometric analysis. Also on record: species or system Prunus dulcis.
A short description of assay [16]: Inhibition of Penicillium decumbens alpha-L-rhamnosidase assessed as reduction of p-nitrophenol release using p-nitrophenyl-glycoside as substrate by spectrophotometric analysis.
Assay [17] has as its target T3, Tissue alpha-L-fucosidase (Bos taurus, UniProt Q2KIM0).
T3 sequence (Q2KIM0 whole entry): T1 sequence (whole entry)
Nature of the assay: Inhibition of bovine kidney alpha-L-fucosidase assessed as reduction of p-nitrophenol release using p-nitrophenyl glycoside as substrate by spectrophotometric analysis.

For a further assay, the target named is Alpha-galactosidase (Coffea arabica, UniProt Q42656). Description: Inhibition of coffee beans alpha-galactosidase assessed as reduction of p-nitrophenol release using p-nitrophenyl glycoside as substrate by spectrophotometric analysis.
The species entered for another assay is Rattus norvegicus. Description: Inhibition of rat intestinal maltase assessed as D-glucose release using maltose as substrate at pH 6.8 at 1000 uM by colorimetric method relative to control.
A further assay addresses T4, Alpha-mannosidase (Canavalia ensiformis, UniProt C0HJB3).
T4 sequence (C0HJB3 whole entry): T2 sequence (whole entry)
Description: Inhibition of jack bean alpha-mannosidase assessed as reduction of p-nitrophenol release using p-nitrophenyl glycoside as substrate by spectrophotometric analysis.

Another assay has as its system Oryza sativa. Description: Inhibition of rice alpha-glucosidase assessed as reduction of p-nitrophenol release using p-nitrophenyl glycoside as substrate at 1000 uM by spectrophotometric analysis relative to control.
The species named for assay [18] is Bos taurus. Description: Inhibition of bovine liver beta-galactosidase assessed as reduction of p-nitrophenol release using p-nitrophenyl glycoside as substrate at 1000 uM by spectrophotometric analysis relative to control.

Among the data in ChEMBL document CHEMBL5331098, “Nanomolar β-glucosidase and β-galactosidase inhibition by enantiomeric α-1-C-alkyl-1,4-dideoxy-1,4-imino-arabinitol derivatives” (Eur J Med Chem, 2023) are IC50 and inhibition values, retold here.

Sequence of Beta-glucuronidase (P05804 whole entry): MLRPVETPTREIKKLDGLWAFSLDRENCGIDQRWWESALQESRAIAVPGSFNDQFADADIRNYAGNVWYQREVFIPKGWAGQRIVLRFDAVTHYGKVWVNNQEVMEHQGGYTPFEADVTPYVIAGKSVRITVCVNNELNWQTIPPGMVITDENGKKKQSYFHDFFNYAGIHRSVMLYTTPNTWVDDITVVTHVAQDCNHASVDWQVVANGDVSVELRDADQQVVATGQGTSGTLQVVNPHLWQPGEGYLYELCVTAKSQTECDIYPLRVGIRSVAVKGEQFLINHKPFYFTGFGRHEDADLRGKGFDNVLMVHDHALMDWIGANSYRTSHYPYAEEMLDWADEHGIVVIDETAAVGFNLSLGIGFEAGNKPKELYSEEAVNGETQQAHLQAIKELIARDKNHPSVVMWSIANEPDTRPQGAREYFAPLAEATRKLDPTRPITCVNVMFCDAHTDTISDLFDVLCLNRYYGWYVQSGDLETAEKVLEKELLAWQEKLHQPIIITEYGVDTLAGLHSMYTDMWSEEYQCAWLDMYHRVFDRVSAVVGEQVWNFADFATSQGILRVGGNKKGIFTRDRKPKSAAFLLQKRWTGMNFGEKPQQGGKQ
Sequence of Alpha-galactosidase (Coffea arabica) (Q42656 16-378 limits assumed): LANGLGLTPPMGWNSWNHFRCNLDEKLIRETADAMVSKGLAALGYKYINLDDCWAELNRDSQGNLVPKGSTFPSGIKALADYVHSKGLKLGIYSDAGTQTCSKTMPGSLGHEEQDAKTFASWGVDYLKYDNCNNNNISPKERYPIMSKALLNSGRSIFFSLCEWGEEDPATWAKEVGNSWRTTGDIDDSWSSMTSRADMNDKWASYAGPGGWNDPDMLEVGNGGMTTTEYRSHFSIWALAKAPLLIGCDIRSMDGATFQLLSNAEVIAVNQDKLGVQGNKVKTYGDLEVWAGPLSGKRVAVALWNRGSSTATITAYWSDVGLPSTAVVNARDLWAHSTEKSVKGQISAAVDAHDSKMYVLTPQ
Sequence of Beta-glucuronidase (Escherichia coli (strain K12)) (P05804 whole entry, looked up): as the sequence (P05804 whole entry) above
Sequence of Alpha-galactosidase (Q42656 whole entry): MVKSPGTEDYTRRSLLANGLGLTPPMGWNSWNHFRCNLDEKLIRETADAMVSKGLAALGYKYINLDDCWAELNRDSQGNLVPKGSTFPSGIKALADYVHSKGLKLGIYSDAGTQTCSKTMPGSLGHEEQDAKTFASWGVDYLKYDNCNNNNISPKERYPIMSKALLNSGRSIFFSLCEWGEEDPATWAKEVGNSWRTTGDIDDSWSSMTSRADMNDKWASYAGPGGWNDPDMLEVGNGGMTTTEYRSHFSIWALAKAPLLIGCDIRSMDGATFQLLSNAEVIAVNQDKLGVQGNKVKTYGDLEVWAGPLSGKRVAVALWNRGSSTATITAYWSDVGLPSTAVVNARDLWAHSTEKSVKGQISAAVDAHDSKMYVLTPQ

For `CC(C)(C)c1ccc(CCCCCC[C@@H](O)[C@@H]2N[C@@H](CO)[C@H](O)[C@H]2O)cc1`, the IC50 in assay [1] turned out to be 6.3 µM; in assay [4] it was 75 µM; in [9] it was 22 µM; in assay [11], 21 µM. The inhibition in the assay filed under Sus scrofa amounted to 0%; in the assay with Prunus dulcis, 21.8%; with Penicillium decumbens, 4.6%; in the assay filed under Bos taurus [2] it was 18.4%; in assay [3], 0%; in the assay on Helix pomatia it was 0.8%. Moreover, the inhibition in assay [5] turned out to be 0%; in [6], 23.5%; in the assay listed under Bos taurus [7], 40%; in assay [8] it was 1%; in the assay on Aspergillus niger, 8.7%; in assay [10], 11.4%.

For the compound `O=C1CCCC=C1CCCCCCC[C@H]1N[C@H](CO)[C@@H](O)[C@@H]1O`, the inhibition in the assay listed under Sus scrofa was 0.8%; in the assay on Penicillium decumbens, 35.1%; in the assay listed under Bos taurus [2], 46.1%; in assay [3], 16.8%; in [5], 15.1%; in [8], 19.6%. Also, the IC50 at Alpha-glucosidase worked out at 21.6 µM; in assay [12], 282 µM; in assay [4] it was 0.03 µM; in assay [13] it was 30 µM; on Beta-glucuronidase, 3.3 µM; in assay [14] it was 0.12 µM. The IC50 in assay [9] was 66.6 µM; in assay [15], 9.8 µM; in [11] it was 119 µM.

In the case of `Cl.OC[C@@H]1N[C@@H](CCCCCCCc2ccccc2)[C@H](O)[C@H]1O`, the inhibition in the assay filed under Sus scrofa is 5.6%; in the assay listed under Bos taurus [2], 41.5%; in the assay with Helix pomatia, 6.7%; in assay [5], 14.7%; in assay [8], 12.1%; in the assay on Aspergillus niger it was 7.2%. Moreover, the IC50 worked out at 802 µM on Alpha-glucosidase; 16 µM in assay [4]; 409 µM in assay [16]; 133 µM at Beta-glucuronidase; 305 µM in assay [14]; 1.9 µM in [9]. Besides, the IC50 in assay [15] worked out at 206 µM; in assay [17] it was 91 µM; in assay [11], 11 µM.

As for `OC[C@H]1N[C@H](CCCCCCCc2ccccc2)[C@@H](O)[C@H]1O`, the IC50 in [1] turned out to be 5.2 µM; on Alpha-galactosidase, 41 µM; in assay [4], 22 µM; in assay [16] it was 313 µM; at Beta-glucuronidase, 75 µM; in assay [14], 64 µM. Moreover, the IC50 was found to be 464 µM in assay [15], 274 µM at Alpha-mannosidase and 85 µM in assay [11]. Further, the inhibition in the assay filed under Sus scrofa was found to be 3.5%; in the assay listed under Bos taurus [2] it was 12.7%; in assay [3], 32.7%; in the assay with Helix pomatia, 3.6%; with Aspergillus niger it was 6%; in the assay filed under Rattus norvegicus, 43.3%. In assay [10], the inhibition came out at 21.1%.

Turning to `OC[C@H]1N[C@H](CCCCCCCc2ccccc2)[C@@H](O)[C@@H]1O`, the inhibition in the assay filed under Sus scrofa stood at 10.7%; in the assay on Penicillium decumbens, 43.9%; in the assay listed under Bos taurus [2] it was 9.8%; in [3], 7.9%; in [5], 8.4%; in [8] it was 5%. The concentration for half-maximal inhibition (IC50) at Alpha-glucosidase amounted to 33 µM; in assay [12] it was 375 µM; in [4], 0.021 µM; in assay [13], 36 µM; on Beta-glucuronidase, 97 µM; in [14], 0.12 µM. Further, the IC50 was 1.6 µM in assay [9], 10 µM in [15] and 6.3 µM in assay [11].

Turning to `OC[C@@H]1N[C@@H]([C@H](O)CCCCCCc2ccc(Cl)cc2)[C@H](O)[C@H]1O`, the IC50 worked out at 109 µM in [1] and 28 µM in assay [9]. Besides, the inhibition in the assay filed under Sus scrofa is 0%; in the assay on Prunus dulcis, 9.6%; with Penicillium decumbens, 0%; in the assay listed under Bos taurus [2] it was 0%; in assay [3] it was 0%; in the assay with Helix pomatia, 0.4%. Also, the inhibition worked out at 0.8% in assay [5]; 4.8% in [6]; 21% in the assay filed under Bos taurus [7]; 1.3% in [8]; 8.7% in the assay with Aspergillus niger; 34% with Oryza sativa. Moreover, the values for the inhibition (in [10]; in the assay filed under Bos taurus [18]) were 11.4% and 37.3%, respectively.
